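Where inhibition never reached the appropriate level, the endpoint shown equals the highest concentration tested. Otherwise, values were interpolated linearly from a five-concentration, 48-hour dose response in 96-well plates. GI50 is the concentration that inhibits growth by half.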 Active and inactive are the calls of the source. Rule as the data show it: active = GI50 up to about 1.1 µM and inactive = higher.

The results in this text go back to ChEMBL document CHEMBL1201862, “PubChem BioAssay data set” (2004).

Among the test systems are LOX IMVI; UACC-257; M14; SK-MEL-2; OVCAR-3; U-251; NCI-H23; HL-60; DU-145; SF-268; 786-0; UO-31; CCRF-CEM; MOLT-4; KM12; SF-539; HOP-92; CAKI-1; KM-20L2.
Assay in all cases: NCI tumour cell line growth inhibition, 48 h

As to `C=C(C)C12CC3CC/C(=N/O)C(C1)C3(N1CCOCC1)C/C2=N/O` (configuration not stated), the GI50 in the test on LOX IMVI, with UACC-257, in the test with M14, in the test on SK-MEL-2, in the test on OVCAR-3 and with U-251 was > 100 µM (inactive) each time. In addition, the GI50 with NCI-H23, with HL-60, in the test on DU-145, with SF-268, with 786-0 and with UO-31 was > 100 µM (inactive) in each case. For the same compound, the GI50 in the test on CCRF-CEM, with MOLT-4, with KM12, in the test on SF-539, with HOP-92 and with CAKI-1 was > 100 µM (inactive) in each case.
As for `CCOC(=O)Nc1ccc(C)c(NC(=O)OCC)c1`, the GI50 in the test with LOX IMVI, in the test with UACC-257, with M14, in the test with SK-MEL-2, in the test on OVCAR-3 and in the test with U-251 was > 100 µM (inactive) each time. The GI50 in the test on NCI-H23, in the test with HL-60, in the test with DU-145, in the test on SF-268, with 786-0 and in the test with UO-31 was > 100 µM (inactive) each time. The GI50 in the test on CCRF-CEM, in the test on MOLT-4, with KM12, in the test with SF-539, in the test on HOP-92 and in the test with CAKI-1 was > 100 µM (inactive) each time.
For `O=C1C(Br)=C(C2=CC(=P(c3ccccc3)(c3ccccc3)c3ccccc3)C=C2)C(=O)C(Br)=C1C1=CC(=P(c2ccccc2)(c2ccccc2)c2ccccc2)C=C1`, the GI50 with LOX IMVI was > 100 µM (inactive); in the test with UACC-257, 33.3 µM (inactive); in the test on M14, 12.6 µM (inactive); with SK-MEL-2, > 100 µM (inactive); in the test with OVCAR-3 it was 40.2 µM (inactive); in the test with U-251, 16.9 µM (inactive). Besides, the GI50 is > 100 µM (inactive) in the test on NCI-H23; > 100 µM (inactive) with HL-60; > 100 µM (inactive) in the test on DU-145; > 100 µM (inactive) in the test on SF-268; 37.9 µM (inactive) in the test with 786-0; > 100 µM (inactive) in the test with UO-31. Besides, the GI50 in the test on CCRF-CEM is > 100 µM (inactive); in the test with MOLT-4, > 100 µM (inactive); in the test with KM12, > 100 µM (inactive); with SF-539, > 100 µM (inactive); with HOP-92, 28.2 µM (inactive); in the test on CAKI-1, > 100 µM (inactive).
As for `Nc1c(O)c(C(=O)O)cc2ccccc12`, the GI50 in the test on LOX IMVI is 10.6 µM (inactive); in the test with UACC-257 it was 17.3 µM (inactive); in the test on M14, 17.7 µM (inactive); in the test on SK-MEL-2 it was 17.7 µM (inactive); in the test on OVCAR-3, 24.3 µM (inactive); in the test on U-251, 30.3 µM (inactive). Moreover, the GI50 in the test with NCI-H23 is 23.3 µM (inactive); in the test with HL-60 it was 32.7 µM (inactive); in the test with DU-145 it was 17.9 µM (inactive); with SF-268 it was 42 µM (inactive); in the test on 786-0, 19.6 µM (inactive); with UO-31, 47.3 µM (inactive). The GI50 is 37.8 µM (inactive) in the test on CCRF-CEM; 29.8 µM (inactive) in the test with MOLT-4; 40.2 µM (inactive) in the test with KM12; 40.6 µM (inactive) with SF-539; 35 µM (inactive) in the test on HOP-92; 22.6 µM (inactive) in the test on CAKI-1.
With `COc1c(C(=O)/C(=N/Nc2ccc(C(=O)O)cc2)C(C)=O)c(O)cc2occc12`, the GI50 with LOX IMVI, in the test with UACC-257, in the test with M14, in the test on SK-MEL-2, in the test on OVCAR-3 and with U-251 was > 100 µM (inactive) throughout. In addition, the GI50 in the test on NCI-H23 was > 100 µM (inactive); with HL-60, 42.8 µM (inactive); with DU-145, > 100 µM (inactive); in the test with SF-268 it was > 100 µM (inactive); with 786-0 it was > 100 µM (inactive); in the test with UO-31, > 100 µM (inactive). Moreover, the GI50 in the test with CCRF-CEM was > 100 µM (inactive); with MOLT-4, > 100 µM (inactive); in the test on KM12, 55 µM (inactive); with SF-539 it was > 100 µM (inactive); in the test on HOP-92 it was 43.4 µM (inactive); in the test on CAKI-1 it was > 100 µM (inactive).
On to `Cc1cccc2c1C(=O)OC2(C)c1cccc2ccccc12` (configuration not stated), for which the GI50 with LOX IMVI was 30.3 µM (inactive); in the test with UACC-257 it was 34.2 µM (inactive); with M14, 13 µM (inactive); in the test on SK-MEL-2, 23.8 µM (inactive); in the test on OVCAR-3, 26.9 µM (inactive); in the test on U-251, 26.2 µM (inactive). Besides, the GI50 with NCI-H23 is 30.8 µM (inactive); in the test with HL-60 it was 16.4 µM (inactive); in the test on SF-268 it was 28.4 µM (inactive); in the test on 786-0, 30.9 µM (inactive); in the test with UO-31 it was 32.8 µM (inactive); with CCRF-CEM, 17.5 µM (inactive). Further, the GI50 was 26.2 µM (inactive) in the test with MOLT-4; 27.6 µM (inactive) with KM12; 18.6 µM (inactive) with HOP-92; 19.8 µM (inactive) in the test on CAKI-1; 24.4 µM (inactive) in the test with KM-20L2.
Turning to `COc1ccc(C=O)c([N+](=O)[O-])c1`, the GI50 in the test with LOX IMVI was 22.1 µM (inactive); with UACC-257, 37.7 µM (inactive); in the test with M14, 38.1 µM (inactive); with SK-MEL-2, 35.2 µM (inactive); in the test with OVCAR-3 it was 27.9 µM (inactive); in the test with U-251, 13.2 µM (inactive). The GI50 with NCI-H23 is > 100 µM (inactive); in the test with HL-60 it was 4.2 µM (inactive); in the test on SF-268, > 100 µM (inactive); with 786-0 it was 66.2 µM (inactive); in the test on UO-31 it was 37.7 µM (inactive); with CCRF-CEM, 4.51 µM (inactive). The GI50 in the test on MOLT-4 was 4.31 µM (inactive); in the test with KM12 it was 22.8 µM (inactive); in the test on SF-539, 20.4 µM (inactive); in the test with HOP-92, 81.3 µM (inactive); in the test with KM-20L2, 14 µM (inactive).
For `O=C1c2ccccc2C(=O)N1C(=S)c1ccccc1`, the GI50 with LOX IMVI, with UACC-257, in the test with M14, in the test with SK-MEL-2, with OVCAR-3 and with U-251 was > 100 µM (inactive) throughout. Besides, the GI50 in the test on NCI-H23, in the test with HL-60, in the test on DU-145, with SF-268, in the test with 786-0 and in the test on UO-31 was > 100 µM (inactive) throughout. Also, the GI50 in the test with CCRF-CEM, in the test with MOLT-4, in the test on KM12, in the test on SF-539, in the test on HOP-92 and in the test with CAKI-1 was > 100 µM (inactive) each time.
As for `C=CCN1CCC(c2cc(C(=O)OCC)[nH]c2-c2cc(C)no2)C1=O` (configuration not stated), the GI50 in the test with LOX IMVI, in the test with UACC-257, in the test with M14, in the test on SK-MEL-2, in the test on OVCAR-3 and with U-251 was > 100 µM (inactive) each time. Also, the GI50 with NCI-H23 was > 100 µM (inactive); in the test with HL-60, 76.2 µM (inactive); in the test on DU-145, > 100 µM (inactive); in the test with SF-268, > 100 µM (inactive); in the test on 786-0, > 100 µM (inactive); with UO-31, > 100 µM (inactive). Besides, the GI50 in the test with CCRF-CEM is > 100 µM (inactive); in the test with MOLT-4, 79.6 µM (inactive); with KM12, > 100 µM (inactive); in the test with SF-539, > 100 µM (inactive); with HOP-92, > 100 µM (inactive); in the test on CAKI-1 it was > 100 µM (inactive).
As to `CC(=O)C1C(=O)C(=O)N(c2ccccc2)C1=O` (configuration not stated), the GI50 with LOX IMVI, with UACC-257, in the test with M14, with SK-MEL-2, in the test on OVCAR-3 and in the test on U-251 was > 100 µM (inactive) throughout. Besides, the GI50 in the test with NCI-H23, in the test with HL-60, with DU-145, in the test with SF-268, in the test with 786-0 and in the test on UO-31 was > 100 µM (inactive) in each case. The GI50 in the test with CCRF-CEM, in the test with MOLT-4, in the test on KM12, in the test on SF-539, in the test with HOP-92 and in the test on CAKI-1 was > 100 µM (inactive) in each case.
With `Cc1c2cc[n+](C)c(C)c2cc2c1[nH]c1ccccc12`, the GI50 is 21.7 µM (inactive) in the test on LOX IMVI; 10.8 µM (inactive) with UACC-257; 25.2 µM (inactive) in the test on M14; 6.73 µM (inactive) with SK-MEL-2; 5 µM (inactive) in the test with OVCAR-3; 0.69 µM (active) with U-251. In addition, the GI50 in the test with NCI-H23 is 2.05 µM (inactive); in the test with HL-60, 16.9 µM (inactive); in the test with DU-145, 10.7 µM (inactive); in the test with SF-268, 0.984 µM (active); with 786-0, 0.646 µM (active); in the test on UO-31, 67.6 µM (inactive). Also, the GI50 was 6.9 µM (inactive) with CCRF-CEM; 4.05 µM (inactive) in the test with MOLT-4; 2.65 µM (inactive) in the test with KM12; 2.96 µM (inactive) in the test on SF-539; 7.46 µM (inactive) with HOP-92; 31.3 µM (inactive) with CAKI-1. Also, in the test with KM-20L2, the GI50 was 4.99 µM (inactive).
